Earlier results in patent US5484911A, “Nucleoside 5'-diphosphate conjugates of ether lipids” (Health Research, Inc., priority 1993, dated 1996).

How the values were obtained:
[1] = tested on: L1210 and P388 leukemia; conditions: mouse, in vivo; cited from earlier work
[2] = tested on: myelomonocytic WEHI-3B leukemia; conditions: mouse, in vivo; cited from earlier work
[3] = tested on: colon 26 carcinoma, M5076 sarcoma, Lewis lung carcinoma, and C-1300 neuroblastoma; conditions: mouse, in vivo; cited from earlier work
[4] = tested on: M5076 sarcoma and Lewis lung carcinoma; conditions: mouse, in vivo; cited from earlier work
[5] = tested on: human colorectal cancer xenografts and PSN-1 human pancreatic tumor; conditions: mouse, in vivo; cited from earlier work
[6] = tested on: rat mammary carcinoma SMT-2A; conditions: alone and in combination with VP-16; cited from earlier work
[7] = mouse, in vivo; cited from earlier work
[8] = tested on: L1210 leukemic cells; conditions: cited from earlier work
[9] = tested on: herpes simplex; conditions: cited from earlier work
[10] = tested on: respiratory syncytial; conditions: cited from earlier work
[11] = tested on: biosynthesis of phosphatidylinositol, phosphatidylglycerol or diphosphatidylglycerol; conditions: rat liver subcellular fractions; release of nucleoside 5'-monophosphates; cited from earlier work

CCCCCCCCCCCCCCCCCCSCC(COP(=O)(O)OP(=O)(O)OC[C@H]1O[C@@H](n2ccc(N)nc2=O)[C@@H](O)[C@@H]1O)OC(=O)CCCCCCCCCCCCCCC (mixture of isomers) [Cytoros]
effectiveness among ara-C conjugates tested [1]: the most effective of those tested | efficacy compared with ara-CDP-L-dipalmitin [2]: considerably higher efficacy than ara-CDP-L-dipalmitin | therapeutic activity [3]: rather broad spectrum of therapeutic activity | antimetastatic activity [4]: displayed antimetastic activity | antitumor activity [5]: strong antitumor activity | primary and lymph node metastasis [6]: markedly retarded both primary and lymph node metastasis | plasma ara-C concentration and intracellular retention of ara-CTP compared to ara-C [7]: more prolonged plasma ara-C concentration and intracellular retention of ara-CTP | cytotoxicity to L1210 leukemic cells compared to normal mouse bone marrow cells [8]: selective cytotoxicity to L1210 leukemic cells

CCCCCCCCCCCCCCCCCCCCCCO [Example 1-Docosanol, 1-Docosanol]
herpes simplex viral replication [9]: inhibits herpes simplex and respiratory syncytial viral replication | respiratory syncytial viral replication [10]: inhibits herpes simplex and respiratory syncytial viral replication

AZT diphosphate diglyceride [AZTDP-DG]
substitution for CDP-DG in phospholipid biosynthesis [11]: can substitute to varying extents for CDP-DG
